Starred links: 1 amine or outer side, 2 acyl side, 3 side chain; linkers in the order of their positions; H or OH if unused. Non-standard residues stand in square brackets, D forms with d. Residues, ends and D or L forms follow the SMILES beside them. *: point of attachment. Dolaproine = CO[C@@H]([C@@H]1CCCN1)[C@@H](C)C(=O)O; X6 = O=C([C@H](N[*:1])[C@@H]1Cc2ccccc21)[*:2]; Dil = CC[C@H](C)[C@H](NC)[C@@H](CC(=O)O)OC; dαMePip = C[C@]1(C(=O)O)CCCCN1; NHPhenethyl = c1ccc(CCN*)cc1; αMeV = CC(C)[C@](C)(N)C(=O)O; X1 = CN1CCC[C@]1(C)C(=O)*; Aib = CC(C)(N)C(=O)O; X3 = C1C2CC1(N*)C2
Key:
Format in all cases: cell-based
N87 (gastric cancer) = test: In vitro cell assay, MTS cell viability 96 hours after treatment; conditions: read-out: N87 GMEAN IC50, N87 cells; geometric mean; cytotoxic peptides
Procedure, shortened: (§1)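 Duplicate wells received antibody-drug conjugates or free compounds across ten 3-fold dilutions. MTS assay determined viability, normalised to untreated controls.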

[1] = test system: MDA-MB-361-DYT2 (breast cancer); test: as above; conditions: read-out: MDA-MB-361-DYT2 GMEAN IC50, MDA-MB-361-DYT2 cells; geometric mean; cytotoxic peptides
Procedure, shortened: as §1

BT474 (breast cancer) = test: as above; conditions: Homo sapiens, BT-474, BT474 cells; geometric mean; cytotoxic peptides; read-out: BT474 GMEAN IC50
Procedure, shortened: as §1

[2] = test system: MDA-MB-468 (breast cancer); test: In vitro cytotoxicity assay with anti-Notch ADCs (MTS); conditions: average of 2-4 repeats where ± S.E.M. is given
Protocol: (§2) The effects of anti-Notch ADCs were assessed on 1) cell lines endogenously expressing Notch protein: HCC2429 (lung cancer), OVCAR3 (ovarian cancer) and MDA-MB-468 (breast cancer), 2) cell lines engineered to over-express Notch protein: MDA-MB-468/hNotch and U2OS/hNotch, and 3) a negative control cell line (SW900) using an MTS cellular viability indicator (Promega, Madison, Wis.). These cell lines were cultured with increasing concentrations of anti-Notch ADCs comprising humanized anti-Notch antibodies, hu28 and hu75, and rat-human chimeric anti-Notch antibodies, ch28 and ch75, conjugated to various linker-payload combinations of the present invention. As a specificity control for the anti-Notch-ADCs, non-targeted control-ADCs (huNeg8.8-ADCs or ch2H6-ADCs) were also tested on the same cell lines. After four days, viability of each culture was assessed. IC50 values were calculated by logistic non-linear regression and presented as ng Ab/mL. The drug antibody ratio (DAR) is also provided.

OVCAR3 (ovarian cancer) = test: as above; conditions: average of 2-4 repeats where ± S.E.M. is given
Protocol: as §2

U2OS/hNotch = test: as above; conditions: average of 2-4 repeats where ± S.E.M. is given
Protocol: as §2

| Molecule | IC50 (N87 (gastric cancer)) | IC50 [1] | IC50 (BT474 (breast cancer)) | IC50 (ng Ab/mL) ± S.E.M. [2] | IC50 (ng Ab/mL) ± S.E.M. (OVCAR3 (ovarian cancer)) | IC50 (ng Ab/mL) ± S.E.M. (U2OS/hNotch) |
| --- | --- | --- | --- | --- | --- | --- |
| CC[C@H](C)[C@@H]([C@@H](CC(=O)N1CCC[C@H]1[C@H](OC)[C@@H](C)C(=O)NCCC1C=CC=CC=C1)OC)N(C)C(=O)[C@@H](NC(=O)[C@]1(C)CCCCN1)C(C)C [#178, (2S)-N-[(2S)-1-{[(3R,4S,5S)-1-{(2S)-2-[(1R,2R)-3-{[2-(cyclohepta-2,4,6-trien-1-yl)ethyl]amino}-1-methoxy-2-methyl-3-oxopropyl]pyrrolidin-1-yl}-3-methoxy-5-methyl-1-oxoheptan-4-yl](methyl)amino}-3-methyl-1-oxobutan-2-yl]-2-methylpiperidine-2-carboxamide] | 1.26 nM | 0.911 nM | 0.968 nM | – | – | – |
| CC[C@H](C)[C@@H]([C@@H](CC(=O)N1CCC[C@H]1[C@H](OC)[C@@H](C)C(=S)N[C@@H](Cc1ccccc1)c1nccs1)OC)N(C)C(=O)[C@@H](NC(=O)C(C)(C)N)C(C)C [#34, 2-methylalanyl-N-[(3R,4S,5S)-3-methoxy-1-{(2S)-2-[(1R,2R)-1-methoxy-2-methyl-3-{[(1S)-2-phenyl-1-(1,3-thiazol-2-yl)ethyl]amino}-3-thioxopropyl]pyrrolidin-1-yl}-5-methyl-1-oxoheptan-4-yl]-N-methyl-L-valinamide] | 1.95 nM | 1.12 nM | 0.211 nM | – | – | – |
| CC[C@H](C)[C@@H]([C@@H](CC(=O)N1CCC[C@H]1[C@H](OC)[C@@H](C)C(=O)N[C@@H](Cc1ccccc1)C(=O)O)OC)N(C)C(=O)[C@@H](NC(=O)[C@@]1(C)CCCCN1)C(C)C [#163, N-{(2R,3R)-3-methoxy-3-[(2S)-1-{(3R,4S,5S)-3-methoxy-5-methyl-4-[methyl(N-{[(2R)-2-methylpiperidin-2-yl]carbonyl}-L-valyl)amino]heptanoyl}pyrrolidin-2-yl]-2-methylpropanoyl}-L-phenylalanine] (H-[dαMePip]V[Dil][Dolaproine]F-OH) | 72.7 nM | 99.4 nM | ≥ 100 nM | – | – | – |
| CC[C@H](C)[C@@H]([C@@H](CC(=O)N1CCC[C@H]1[C@H](OC)[C@@H](C)C(=O)N[C@@H](C(=O)OC)[C@@H]1Cc2ccccc21)OC)N(C)C(=O)[C@@H](NC(=O)C(C)(C)N)C(C)C [#224] (H-[Aib]V[Dil][Dolaproine][X6]-OMe) | 1.56 nM | 0.998 nM | 0.383 nM | – | – | – |
| CC[C@H](C)[C@@H]([C@@H](CC(=O)N1CCC[C@H]1[C@H](OC)[C@@H](C)C(=O)N[C@@H](Cc1ccccc1)C(=O)OC)OC)N(C)C(=O)[C@@H](NC(=O)[C@@](C)(N)C(C)C)C(C)C [#147, 3-methyl-L-isovalyl-N-{(1S,2R)-4-{(2S)-2-[(1R,2R)-3-{[(1S)-1-benzyl-2-methoxy-2-oxoethyl]amino}-1-methoxy-2-methyl-3-oxopropyl]pyrrolidin-1-yl}-2-methoxy-1-[(1S)-1-methylpropyl]-4-oxobutyl}-N-methyl-L-valinamide] (H-[αMeV]V[Dil][Dolaproine]F-OMe) | 0.144 nM | 0.421 nM | 0.456 nM | – | – | – |
| CC[C@H](C)[C@@H]([C@@H](CC(=O)N1CCC[C@H]1[C@H](OC)[C@@H](C)C(=O)N[C@@H](Cc1ccccc1)C(=O)OC)OC)N(C)C(=O)[C@@H](NC(=O)[C@@]1(C)CCCN1C)C(C)C [#236] (X1-V[Dil][Dolaproine]F-OMe) | 0.023 nM | 0.01 nM | 0.02 nM | – | – | – |
| CC[C@H](C)[C@@H]([C@@H](CC(=O)N1CCC[C@H]1[C@H](OC)[C@@H](C)C(=O)NC12CC(C1)C2)OC)N(C)C(=O)[C@@H](NC(=O)C(C)(C)N)C(C)C [#221] (H-[Aib]V[Dil][Dolaproine]-X3) | 87.9 nM | 65.4 nM | 32.4 nM | – | – | – |
| CC[C@H](C)[C@@H]([C@@H](CC(=O)N1CCC[C@H]1[C@H](OC)[C@@H](C)C(=S)N[C@@H](Cc1ccccc1)c1nccs1)OC)N(C)C(=O)[C@@H](NC(=O)C(C)(C)NC)C(C)C [#84, N,2-dimethylalanyl-N-[(3R,4S,5S)-3-methoxy-1-{(2S)-2-[(1R,2R)-1-methoxy-2-methyl-3-{[(1S)-2-phenyl-1-(1,3-thiazol-2-yl)ethyl]amino}-3-thioxopropyl]pyrrolidin-1-yl}-5-methyl-1-oxoheptan-4-yl]-N-methyl-L-valinamide] | 0.426 nM | 0.686 nM | 0.246 nM | – | – | – |
| CC[C@H](C)[C@@H]([C@@H](CC(=O)N1CCC[C@H]1[C@H](OC)[C@@H](C)C(=O)NCCc1ccccc1)OC)N(C)C(=O)[C@@H](NC(=O)C(C)(C)N)C(C)C [#56, 2-methylalanyl-N-{(3R,4S,5S)-3-methoxy-1-[(2S)-2-{(1R,2R)-1-methoxy-2-methyl-3-oxo-3-[(2-phenylethyl)amino]propyl}pyrrolidin-1-yl]-5-methyl-1-oxoheptan-4-yl}-N-methyl-L-valinamide] (H-[Aib]V[Dil][Dolaproine]-NHPhenethyl) | 1.26 nM | 0.766 nM | 0.316 nM | – | – | – |
| ch75-MalPeg6C2-8261 (conjugate) VH: QVKLLQSGAALVKPGASVKMSCKASGYAFTDYWVTWVKQSHGKSLEWIGEISPNSGGTNFNEKFKGKATLTVDKSTSTAYMELSRLTSEDSAIYYCTRGEIRYNWFAYWGQGTLVTVSS VL: DIQMTQSPSSLSASVGDRVTITCKASQNVGNNIAWYQQKPGKAPKLLIYYASNRYTGVPSRFSGSGYGTDFTLTISSLQPEDFATYYCQRLYNSPFTFGGGTKVEIK | – | – | – | 4255 ± 2375 ng Ab/mL | – | – |
| ch75-mc3377 (conjugate) VH: QVKLLQSGAALVKPGASVKMSCKASGYAFTDYWVTWVKQSHGKSLEWIGEISPNSGGTNFNEKFKGKATLTVDKSTSTAYMELSRLTSEDSAIYYCTRGEIRYNWFAYWGQGTLVTVSS VL: DIQMTQSPSSLSASVGDRVTITCKASQNVGNNIAWYQQKPGKAPKLLIYYASNRYTGVPSRFSGSGYGTDFTLTISSLQPEDFATYYCQRLYNSPFTFGGGTKVEIK | – | – | – | 560 ng Ab/mL | – | – |
| ch75-me0131 (conjugate) VH: QVKLLQSGAALVKPGASVKMSCKASGYAFTDYWVTWVKQSHGKSLEWIGEISPNSGGTNFNEKFKGKATLTVDKSTSTAYMELSRLTSEDSAIYYCTRGEIRYNWFAYWGQGTLVTVSS VL: DIQMTQSPSSLSASVGDRVTITCKASQNVGNNIAWYQQKPGKAPKLLIYYASNRYTGVPSRFSGSGYGTDFTLTISSLQPEDFATYYCQRLYNSPFTFGGGTKVEIK | – | – | – | 259 ng Ab/mL | – | – |
| ch28-mc3377 (conjugate) VH: EVQLVESGGGLVQPGRSLTLSCVASGFTFRDYGMTWIRQAPGKGLTWVAYISSGSNYIYYAEAVKGRFTISRDNAKNTLYLQMTSLRSEDTALYFCTRRGPFVLDAWGQGASVTVSS VL: DIQMTQSPSFLSASVGDRVTINCKASQSINRYLHWFQQKLGEAPKLLIYNANGLQTGIPSRFSGSGSGTDFTLTISSLQSEDVATYFCLQHNTWPDTFGAGTKLELK | – | – | – | 27 ± 11.3 ng Ab/mL | 14 ± 5.5 ng Ab/mL | 3 ± 0.5 ng Ab/mL |
| ch28-MalPeg6C2-8261 (conjugate) VH: EVQLVESGGGLVQPGRSLTLSCVASGFTFRDYGMTWIRQAPGKGLTWVAYISSGSNYIYYAEAVKGRFTISRDNAKNTLYLQMTSLRSEDTALYFCTRRGPFVLDAWGQGASVTVSS VL: DIQMTQSPSFLSASVGDRVTINCKASQSINRYLHWFQQKLGEAPKLLIYNANGLQTGIPSRFSGSGSGTDFTLTISSLQSEDVATYFCLQHNTWPDTFGAGTKLELK | – | – | – | 83 ± 35.5 ng Ab/mL | – | – |
| ch28-MalPeg6C2-0131 (conjugate) VH: EVQLVESGGGLVQPGRSLTLSCVASGFTFRDYGMTWIRQAPGKGLTWVAYISSGSNYIYYAEAVKGRFTISRDNAKNTLYLQMTSLRSEDTALYFCTRRGPFVLDAWGQGASVTVSS VL: DIQMTQSPSFLSASVGDRVTINCKASQSINRYLHWFQQKLGEAPKLLIYNANGLQTGIPSRFSGSGSGTDFTLTISSLQSEDVATYFCLQHNTWPDTFGAGTKLELK | – | – | – | 10 ± 1.0 ng Ab/mL | 10 ± 2.0 ng Ab/mL | 3 ± 0.85 ng Ab/mL |
| ch28-mc8261 (conjugate) VH: EVQLVESGGGLVQPGRSLTLSCVASGFTFRDYGMTWIRQAPGKGLTWVAYISSGSNYIYYAEAVKGRFTISRDNAKNTLYLQMTSLRSEDTALYFCTRRGPFVLDAWGQGASVTVSS VL: DIQMTQSPSFLSASVGDRVTINCKASQSINRYLHWFQQKLGEAPKLLIYNANGLQTGIPSRFSGSGSGTDFTLTISSLQSEDVATYFCLQHNTWPDTFGAGTKLELK | – | – | – | 12147 ± 4806.4 ng Ab/mL | – | – |

Reference: patent publication US8828401B2, “Cytotoxic peptides and antibody drug conjugates thereof” (Pfizer Inc., priority 2011, dated 2014)
